Measurements as given in the supplement of paper PMC10307832.

How the values were obtained:
Experiment in all cases: relative viability (nuclei count vs DMSO), 5 days (fraction); higher = more cells survive
[1] = compound: O=c1[nH]cc(F)c(=O)[nH]1 [5-Fluorouracil] + Cc1cc(Nc2cc(N3CCN(C)CC3)nc(Sc3ccc(NC(=O)C4CC4)cc3)n2)n[nH]1 [Tozasertib] (partner 0.1 µM)
How it was run: (§1)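 Lung cancer cell lines were pin-tool dosed in 1536-well plates on the day after seeding, with either a lone drug or a fixed anchor-drug dose plus five library-drug doses (not always all listed) in √10 steps. Nuclei were counted on 4× images after 5 days. Relative viability is the ratio of treated-well to vehicle-well nuclei counts, with each value a median of duplicate plates.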

[2] = compound: CC1=C(CC(=O)O)c2cc(F)ccc2/C1=C\c1ccc([S+](C)[O-])cc1 [Sulindac] + CC1(C)CCC(c2ccc(Cl)cc2)=C(CN2CCN(c3ccc(C(=O)NS(=O)(=O)c4ccc(N[C@H](CCN5CCOCC5)CSc5ccccc5)c(S(=O)(=O)C(F)(F)F)c4)cc3)CC2)C1 [Navitoclax] (partner 0.5 µM)
How it was run: as §1

[3] = compound: O=c1[nH]cc(F)c(=O)[nH]1 [5-Fluorouracil] + Cc1nc(NC(=O)N2CCC[C@H]2C(N)=O)sc1-c1ccnc(C(C)(C)C(F)(F)F)c1 [Alpelisib] (partner 2 µM)
How it was run: as §1

[4] = compound: O=c1[nH]cc(F)c(=O)[nH]1 [5-Fluorouracil] + CC1(C)CCC(c2ccc(Cl)cc2)=C(CN2CCN(c3ccc(C(=O)NS(=O)(=O)c4ccc(N[C@H](CCN5CCOCC5)CSc5ccccc5)c(S(=O)(=O)C(F)(F)F)c4)cc3)CC2)C1 [Navitoclax] (partner 0.5 µM)
How it was run: as §1

Cell Line | relative viability ([1]; first compound 0.02 µM) | relative viability ([1]; first compound 0.2 µM) | relative viability ([1]; first compound 0.6325 µM) | relative viability ([1]; first compound 2 µM) | relative viability ([2]; first compound 0.08 µM) | relative viability ([2]; first compound 0.253 µM) | relative viability ([2]; first compound 0.8 µM) | relative viability ([2]; first compound 2.53 µM) | relative viability ([2]; first compound 8 µM) | relative viability ([3]; first compound 0.02 µM) | relative viability ([3]; first compound 0.2 µM) | relative viability ([3]; first compound 0.6325 µM) | relative viability ([3]; first compound 2 µM) | relative viability ([4]; first compound 0.02 µM) | relative viability ([4]; first compound 0.2 µM) | relative viability ([4]; first compound 0.6325 µM) | relative viability ([4]; first compound 2 µM)
201T | 0.916 | 0.477 | 0.369 | 0.313 | 1.19 | 1.15 | 1.27 | 1.16 | 1.23 | 0.979 | 0.873 | 0.325 | 0.332 | 1.18 | 1.01 | 0.543 | 0.42
A549 |  |  |  |  | 1.63 | 1.29 |  | 1.21 | 1.46 | 0.587 | 0.476 | 0.256 | 0.113 | 1.2 | 0.754 | 0.244 | 0.114
A-427 | 0.181 |  | 0.189 | 0.159 | 1.07 | 0.94 | 0.985 | 0.926 | 1.04 | 1.06 | 1.12 | 0.957 |  | 0.827 | 0.999 | 0.879 | 0.438
ABC-1 | 0.163 | 0.184 | 0.171 | 0.195 |  |  |  |  |  | 1.11 | 1.16 | 0.896 | 0.92 |  |  |  | 
BEN | 0.43 | 0.479 | 0.491 | 0.535 | 0.0725 | 0.0631 | 0.065 | 0.0775 | 0.0638 | 0.987 | 0.873 | 0.657 | 0.692 | 0.0616 | 0.276 | 0.0857 | 0.0672
CAL-12T | 0.337 | 0.385 | 0.316 | 0.221 | 1.67 | 1.35 | 0.969 | 1.38 | 1.42 | 1.47 | 1.22 | 1.02 | 0.425 | 1.13 | 1.25 | 0.974 | 0.489
COR-L23 |  |  |  |  | 1.19 | 1.09 |  | 0.964 | 1.3 | 0.862 | 0.661 | 0.491 | 0.209 | 1.05 | 0.949 | 0.533 | 0.239
COR-L 105 | 0.303 | 0.328 | 0.323 | 0.26 | 0.591 | 0.987 | 0.901 | 0.722 | 0.962 | 0.725 | 1.11 | 0.874 | 0.449 | 0.707 | 0.685 | 0.694 | 0.582
Calu-6 |  |  |  |  | 1.1 | 1.04 | 0.627 | 0.756 | 1.21 | 1.03 | 0.976 | 0.684 | 0.448 | 0.859 | 0.786 | 0.679 | 0.362
ChaGo-K-1 |  |  |  |  | 1.01 | 0.925 | 1.21 | 0.897 | 1.56 |  |  |  |  | 0.956 | 1.07 | 0.672 | 0.685
EBC-1 |  |  |  |  | 0.377 | 0.387 | 0.36 | 0.344 | 0.431 | 0.865 | 0.841 | 0.792 | 0.612 | 0.342 | 0.405 | 0.44 | 0.339
EKVX | 0.35 | 0.172 | 0.147 | 0.131 | 0.976 | 0.969 | 0.889 | 1.04 | 1.07 | 0.7 |  | 0.153 | 0.147 | 0.847 | 0.283 | 0.142 | 0.124
IA-LM |  |  |  |  | 0.696 | 0.863 |  | 0.81 | 0.79 | 0.682 | 0.37 | 0.175 | 0.182 | 0.934 | 0.328 | 0.179 | 0.178
LCLC-103H | 0.536 | 0.511 | 0.305 | 0.212 |  |  |  |  |  | 0.984 | 0.983 | 0.699 | 0.403 |  |  |  | 
NCI-H358 | 0.132 | 0.104 | 0.0975 | 0.103 |  |  |  |  |  | 0.935 | 0.817 | 1.04 | 0.434 |  |  |  | 
NCI-H522 | 0.515 | 0.556 | 0.586 | 0.48 |  |  |  |  |  |  |  |  |  |  |  |  | 
NCI-H650 | 0.765 | 0.384 | 0.309 | 0.257 |  |  |  |  |  | 0.915 | 0.644 | 0.523 | 0.397 |  |  |  | 
NCI-H661 | 0.365 | 0.355 | 0.342 | 0.319 |  |  |  |  |  | 0.598 | 1.12 | 0.597 | 0.612 |  |  |  | 
NCI-H1299 |  |  |  |  | 1.11 | 1.05 | 1.02 | 1.05 | 1.05 | 1.11 | 1.14 | 0.953 | 0.763 | 1.07 | 1.1 | 1.06 | 0.895
NCI-H1563 |  |  |  |  |  |  |  |  |  | 0.772 | 0.931 | 0.821 | 0.841 |  |  |  | 
NCI-H1623 | 0.38 | 0.314 | 0.264 | 0.248 |  |  |  |  |  |  |  |  |  |  |  |  | 
NCI-H1648 | 0.442 | 0.457 | 0.372 | 0.207 |  |  |  |  |  |  |  |  |  |  |  |  | 
NCI-H1650 | 0.408 | 0.401 | 0.317 | 0.211 | 1.23 | 1.12 | 1.16 | 1.04 | 1.38 |  |  |  |  | 1.29 | 0.82 | 0.63 | 0.294
NCI-H1703 |  |  |  |  | 1.14 | 0.978 | 0.877 | 1.1 | 1.45 | 0.279 | 0.327 | 0.371 | 0.359 | 1.32 | 1.08 | 0.817 | 0.61
NCI-H1792 |  |  |  |  | 0.796 | 0.682 |  | 0.681 | 0.691 | 0.691 | 0.606 | 0.168 | 0.116 | 0.64 | 0.591 | 0.131 | 0.118
NCI-H2342 | 0.484 | 0.471 | 0.626 | 0.443 |  |  |  |  |  |  |  |  |  |  |  |  | 
SW 900 | 0.595 | 0.644 | 0.602 | 0.421 |  |  |  |  |  |  |  |  |  |  |  |  | 
